Data published in US20220117938A1, “COMBINATON THERAPY WITH A DON PRODRUG AND AN IMMUNE CHECKPOINT INHIBITOR” (DRACEN PHARMACEUTICALS, INC., priority 2019, published 2022).

Test system: MC-38 tumors
Test: Anti-tumor efficacy of Compound 1 in the subcutaneous MC-38 model: schedule comparison (Example 3)
Format: in vivo, Mus musculus
Description: Female C57BL/6 mice were inoculated subcutaneously at right flank with MC-38 cells for tumor development. Six days after tumor inoculation, 64 mice with tumor size ranging from 50-100 mm^3 (average tumor size 71 mm^3) were selected and assigned into 8 groups using stratified randomization with 8 mice per group based upon their tumor volumes. The treatments were started from the day of randomization (defined as D0), Group 1 was treated with Vehicle (Tween 80:Ethanol:Saline—5:5:90 v/v/v), S.C. QD*20 days, Group 2 was treated with Compound 1 at 1 mpk S.C. QD*28 days, Group 3 was treated with Compound 1 at 0.5 mpk S.C. QD*28 days, Group 4 was treated with Compound 1 at 1.4 mpk S.C. 5-days ON 2-days OFF×4 cycles, Group 5 was treated with Compound 1 at 0.7 mpk S.C. 5-days ON 2-days OFF×4 cycles, Group 6 was treated with Compound 1 at 3 mpk qd×5, followed by 1 mpk qd×23, S.C. QD, Group 7 was treated with Compound 1 at 1.5 mpk qd×5, followed by 0.5 mpk qd×23, S.C. QD and Group 8 was treated with Compound 1 at 1.4 mpk 10-days ON 4-days OFF×2 cycles, S.C.
Species: Mus musculus; Strain: C57BL/6; Age: 6-8 weeks; Sex: female; Body weight (at treatment start): 16-20 g.
The MC-38 tumor cells were maintained in vitro as a monolayer culture in DMEM medium supplemented with 10% heat inactivated fetal bovine serum and 100 μg/mL penicillin streptomycin at 37° C. in an atmosphere of 5% CO2 in air. The tumor cells were routinely subcultured twice weekly by trypsin-EDTA treatment. The cells growing to a confluency around 70%-80% were harvested and counted for tumor inoculation. The cultured MC-38 were harvested, re-suspended in base medium at a density of 1×10^7 cells/mL with viability>90%. Each mouse was inoculated subcutaneously at the right flank with 1×10^6 cells in 0.1 ml base medium for tumor development.
The treatments were started on day 6 after tumor inoculation when the tumor size reached 50-100 mm^3 (average tumor size 71 mm^3). Each group consisted of 8 tumor-bearing mice. The testing article was administrated to the mice at a dosing volume of 10 mL/Kg according to the predetermined regimen as shown in Table 3-1.
Tumor sizes were measured three times a week in two dimensions using a caliper, and the volume expressed in mm^3 using the formula: V=0.5 a×b^2 where a and b are the long and short diameters of the tumor, respectively. The tumor sizes were then used for the calculations of both tumor growth inhibition (TGI) and T/C values.
TGI is calculated for each group using the formula: […]
TVTreatment_DayN is the average tumor volume of a treatment group on a given day, TVTreatment_Day0 is the average tumor volume of the treatment group on the first day of treatment, TVVehicle_DayN is the average tumor volume of the vehicle control group on a given day, and TVVehicle_Day0 is the average tumor volume of the vehicle group on the first day of treatment.
The T/C value (in percent) is an indication of antitumor effectiveness, T/C (%)=RTVTreatment/RTVControl×100% (RTVTreatment: the mean RTV of the treatment group; RTVControl: the mean RTV of the vehicle treated group). RTV (relative tumor volume)=TVDayN/TVDay0. TVDayN and TVDay0 is the tumor volume on day N and Day 0 respectively. T/C (%)≤42% is considered as significant antitumor activity and <10% is considered as highly significant antitumor activity by the National Cancer Institute criteria.
Relative change of body weight (RCBW) of each mouse was calculated according to the following formula: […]
Animal survival curve: When an individual animal reached to the termination endpoint (TV>2000 mm^3), the mouse was euthanized. The time from treatment initiation to the termination was deemed as its survival time. Survival curve was plotted by Kaplan-Meier method. Median survival time (MST) was calculated for each group. Increase of life span (ILS) was calculated according to the following formula: […]
ILS (%)>25% is considered as a biologically significant survival benefit. […]

CC(=O)N[C@@H](Cc1c[nH]c2ccccc12)C(=O)N[C@@H](CCC(=O)C=[N+]=[N-])C(=O)OC(C)C [Compound 1, Isopropyl (S)-2-((S)-2-acetamido-3-(1H-indol-3-yl)propanamido)-6-diazo-5-oxohexanoate]
Tumor volume (Mean ± SEM) (Day 20, Group 3: 0.5 mg/kg qdx28, sc): 7 ± 1 mm^3
Tumor volume (Mean ± SEM) (Day 20, Group 4: 1.4 mg/kg 5-days ON 2-days OFF x 4 cycles, sc): 0 ± 0 mm^3
Tumor volume (Mean ± SEM) (Day 20, Group 5: 0.7 mg/kg 5-days ON 2-days OFF x 4 cycles, sc): 2 ± 1 mm^3
Tumor volume (Mean ± SEM) (Day 20, Group 6: 3 mpk qdx5 followed by 1 mpk qdx23, sc): 5 ± 2 mm^3
Tumor volume (Mean ± SEM) (Day 20, Group 7: 1.5 mpk qdx5 followed by 0.5 mpk qdx23, sc): 5 ± 1 mm^3
Tumor volume (Mean ± SEM) (Day 20, Group 8: 1.4 mg/kg 10-days ON 4-days OFF x 2 cycles, sc): 6 ± 2 mm^3
Tumor volume (Mean ± SEM) (Day 22, Group 2: 1 mg/kg qdx28, sc): 2 ± 1 mm^3
Tumor volume (Mean ± SEM) (Day 22, Group 3: 0.5 mg/kg qdx28, sc): 6 ± 2 mm^3
Tumor volume (Mean ± SEM) (Day 22, Group 4: 1.4 mg/kg 5-days ON 2-days OFF x 4 cycles, sc): 0 ± 0 mm^3
Tumor volume (Mean ± SEM) (Day 22, Group 5: 0.7 mg/kg 5-days ON 2-days OFF x 4 cycles, sc): 2 ± 1 mm^3
Tumor volume (Mean ± SEM) (Day 22, Group 6: 3 mpk qdx5 followed by 1 mpk qdx23, sc): 3 ± 1 mm^3
Tumor volume (Mean ± SEM) (Day 22, Group 7: 1.5 mpk qdx5 followed by 0.5 mpk qdx23, sc): 6 ± 1 mm^3
Tumor volume (Mean ± SEM) (Day 22, Group 8: 1.4 mg/kg 10-days ON 4-days OFF x 2 cycles, sc): 5 ± 2 mm^3
Tumor volume (Mean ± SEM) (Day 25, Group 2: 1 mg/kg qdx28, sc): 5 ± 1 mm^3
Tumor volume (Mean ± SEM) (Day 25, Group 3: 0.5 mg/kg qdx28, sc): 6 ± 1 mm^3
Tumor volume (Mean ± SEM) (Day 25, Group 4: 1.4 mg/kg 5-days ON 2-days OFF x 4 cycles, sc): 0 ± 0 mm^3
Tumor volume (Mean ± SEM) (Day 25, Group 5: 0.7 mg/kg 5-days ON 2-days OFF x 4 cycles, sc): 2 ± 1 mm^3
Tumor volume (Mean ± SEM) (Day 25, Group 6: 3 mpk qdx5 followed by 1 mpk qdx23, sc): 2 ± 1 mm^3
Tumor volume (Mean ± SEM) (Day 25, Group 7: 1.5 mpk qdx5 followed by 0.5 mpk qdx23, sc): 4 ± 1 mm^3
Tumor volume (Mean ± SEM) (Day 25, Group 8: 1.4 mg/kg 10-days ON 4-days OFF x 2 cycles, sc): 5 ± 2 mm^3
Tumor volume (Mean ± SEM) (Day 27, Group 2: 1 mg/kg qdx28, sc): 6 ± 2 mm^3
Tumor volume (Mean ± SEM) (Day 27, Group 3: 0.5 mg/kg qdx28, sc): 7 ± 1 mm^3
Tumor volume (Mean ± SEM) (Day 27, Group 4: 1.4 mg/kg 5-days ON 2-days OFF x 4 cycles, sc): 0 ± 0 mm^3
Tumor volume (Mean ± SEM) (Day 27, Group 5: 0.7 mg/kg 5-days ON 2-days OFF x 4 cycles, sc): 1 ± 1 mm^3
Tumor volume (Mean ± SEM) (Day 27, Group 6: 3 mpk qdx5 followed by 1 mpk qdx23, sc): 2 ± 1 mm^3
Tumor volume (Mean ± SEM) (Day 27, Group 7: 1.5 mpk qdx5 followed by 0.5 mpk qdx23, sc): 4 ± 1 mm^3
Tumor volume (Mean ± SEM) (Day 27, Group 8: 1.4 mg/kg 10-days ON 4-days OFF x 2 cycles, sc): 6 ± 2 mm^3
Tumor volume (Mean ± SEM) (Day 29, Group 2: 1 mg/kg qdx28, sc): 17 ± 11 mm^3
Tumor volume (Mean ± SEM) (Day 29, Group 3: 0.5 mg/kg qdx28, sc): 13 ± 3 mm^3
Tumor volume (Mean ± SEM) (Day 29, Group 4: 1.4 mg/kg 5-days ON 2-days OFF x 4 cycles, sc): 1 ± 1 mm^3
Tumor volume (Mean ± SEM) (Day 29, Group 5: 0.7 mg/kg 5-days ON 2-days OFF x 4 cycles, sc): 2 ± 1 mm^3
Tumor volume (Mean ± SEM) (Day 29, Group 6: 3 mpk qdx5 followed by 1 mpk qdx23, sc): 5 ± 3 mm^3
Tumor volume (Mean ± SEM) (Day 29, Group 7: 1.5 mpk qdx5 followed by 0.5 mpk qdx23, sc): 10 ± 3 mm^3
Tumor volume (Mean ± SEM) (Day 29, Group 8: 1.4 mg/kg 10-days ON 4-days OFF x 2 cycles, sc): 17 ± 5 mm^3
Tumor volume (Mean ± SEM) (Day 32, Group 2: 1 mg/kg qdx28, sc): 92 ± 47 mm^3
Tumor volume (Mean ± SEM) (Day 32, Group 3: 0.5 mg/kg qdx28, sc): 45 ± 9 mm^3
Tumor volume (Mean ± SEM) (Day 32, Group 4: 1.4 mg/kg 5-days ON 2-days OFF x 4 cycles, sc): 13 ± 7 mm^3
Tumor volume (Mean ± SEM) (Day 32, Group 5: 0.7 mg/kg 5-days ON 2-days OFF x 4 cycles, sc): 20 ± 12 mm^3
Tumor volume (Mean ± SEM) (Day 32, Group 6: 3 mpk qdx5 followed by 1 mpk qdx23, sc): 51 ± 35 mm^3
Tumor volume (Mean ± SEM) (Day 32, Group 7: 1.5 mpk qdx5 followed by 0.5 mpk qdx23, sc): 44 ± 12 mm^3
Tumor volume (Mean ± SEM) (Day 32, Group 8: 1.4 mg/kg 10-days ON 4-days OFF x 2 cycles, sc): 73 ± 19 mm^3
Tumor volume (Mean ± SEM) (Day 34, Group 2: 1 mg/kg qdx28, sc): 190 ± 81 mm^3
Tumor volume (Mean ± SEM) (Day 34, Group 3: 0.5 mg/kg qdx28, sc): 121 ± 20 mm^3
Tumor volume (Mean ± SEM) (Day 34, Group 4: 1.4 mg/kg 5-days ON 2-days OFF x 4 cycles, sc): 37 ± 21 mm^3
Tumor volume (Mean ± SEM) (Day 34, Group 5: 0.7 mg/kg 5-days ON 2-days OFF x 4 cycles, sc): 32 ± 16 mm^3
Tumor volume (Mean ± SEM) (Day 34, Group 6: 3 mpk qdx5 followed by 1 mpk qdx23, sc): 114 ± 79 mm^3
Tumor volume (Mean ± SEM) (Day 34, Group 7: 1.5 mpk qdx5 followed by 0.5 mpk qdx23, sc): 112 ± 24 mm^3
Tumor volume (Mean ± SEM) (Day 34, Group 8: 1.4 mg/kg 10-days ON 4-days OFF x 2 cycles, sc): 168 ± 43 mm^3
Tumor volume (Mean ± SEM) (Day 36, Group 2: 1 mg/kg qdx28, sc): 454 ± 212 mm^3
Tumor volume (Mean ± SEM) (Day 36, Group 3: 0.5 mg/kg qdx28, sc): 285 ± 42 mm^3
Tumor volume (Mean ± SEM) (Day 36, Group 4: 1.4 mg/kg 5-days ON 2-days OFF x 4 cycles, sc): 100 ± 47 mm^3
Tumor volume (Mean ± SEM) (Day 36, Group 5: 0.7 mg/kg 5-days ON 2-days OFF x 4 cycles, sc): 125 ± 63 mm^3
Tumor volume (Mean ± SEM) (Day 36, Group 6: 3 mpk qdx5 followed by 1 mpk qdx23, sc): 288 ± 174 mm^3
Tumor volume (Mean ± SEM) (Day 36, Group 7: 1.5 mpk qdx5 followed by 0.5 mpk qdx23, sc): 364 ± 69 mm^3
Tumor volume (Mean ± SEM) (Day 36, Group 8: 1.4 mg/kg 10-days ON 4-days OFF x 2 cycles, sc): 479 ± 121 mm^3
Tumor volume (Mean ± SEM) (Day 39, Group 2: 1 mg/kg qdx28, sc): 1109 ± 398 mm^3
Tumor volume (Mean ± SEM) (Day 39, Group 3: 0.5 mg/kg qdx28, sc): 592 ± 61 mm^3
Tumor volume (Mean ± SEM) (Day 39, Group 4: 1.4 mg/kg 5-days ON 2-days OFF x 4 cycles, sc): 238 ± 72 mm^3
Tumor volume (Mean ± SEM) (Day 39, Group 5: 0.7 mg/kg 5-days ON 2-days OFF x 4 cycles, sc): 242 ± 114 mm^3
Tumor volume (Mean ± SEM) (Day 39, Group 6: 3 mpk qdx5 followed by 1 mpk qdx23, sc): 723 ± 345 mm^3
Tumor volume (Mean ± SEM) (Day 39, Group 7: 1.5 mpk qdx5 followed by 0.5 mpk qdx23, sc): 904 ± 174 mm^3
Tumor volume (Mean ± SEM) (Day 39, Group 8: 1.4 mg/kg 10-days ON 4-days OFF x 2 cycles, sc): 945 ± 260 mm^3
Tumor volume (Mean ± SEM) (Day 41, Group 3: 0.5 mg/kg qdx28, sc): 1718 ± 136 mm^3
Tumor volume (Mean ± SEM) (Day 41, Group 4: 1.4 mg/kg 5-days ON 2-days OFF x 4 cycles, sc): 420 ± 129 mm^3
Mice completely tumor free on D67 ("cured") (Group 5: 0.7 mpk S.C. 5-days ON 2-days OFF×4 cycles, 8 mice per group): Four
